Columns and labels:
[1] = tested on: H5N1 influenza virus strain A/Egypt/M7217B/2013; test: microbe, parasite or virus in culture; assay type: cell-based, influenza A virus (subtype H5N1); details: for inhibition at 125 µM / inhibition at 250 µM: MDCK, read-out: inhibition % (plaque reduction assay)
[2] = tested on: Madin–Darby canine kidney (MDCK) cells; details: dog

Row | SMILES | viral count (plaque reduction assay) [1] | inhibition at 125 µM [1] [%] | inhibition at 250 µM [1] [%] | MTT assay LD50 [2] [µmol/mL] | therapeutic index (qualitative, plaque reduction assay) [1] | safety for healthy cells judged from LD50 values (NCI and GERAN protocol) [2]
1 | CSC(NC(=O)c1ccccc1)=C(C#N)C#N [3a, N-(2,2-Dicyano-1-(methylthio)vinyl)benzamide] | 5.0 × 10^6 4.0 × 10^6 PFU/mL | 16.7 | 33.3 | 200 | – | –
2 | CCSC(NC(=O)c1ccccc1)=C(C#N)C#N [3b, N-(2,2-Dicyano-1-(ethylthio)vinyl)benzamide] | 2.2 × 10^6 9.0 × 10^5 PFU/mL | 63.3 | 85 | 480 | higher therapeutic indices | safe for healthy cells
3 | N#CC(C#N)=C(NC(=O)c1ccccc1)SCc1ccccc1 [3c, N-(1-(Benzylthio)-2,2-dicyanovinyl)benzamide] | 2.8 × 10^6 2.1 × 10^6 PFU/mL | 53.3 | 65 | 200 | – | –
4 | N#Cc1nnc2c(C#N)c(NC(=O)c3ccccc3)nn2c1N [6a, N-(4-Amino-3,8-dicyanopyrazolo[5,1-c][1,2,4]triazin-7-yl)benzamide] | 4.0 × 10^6 3.0 × 10^6 PFU/mL | 33.3 | 50 | 200 | – | –
5 | CCOc1c(C#N)nnc2c(C#N)c(NC(=O)c3ccccc3)nn12 [6b, N-(3,8-Dicyano-4-ethoxypyrazolo[5,1-c][1,2,4]triazin-7-yl)benzamide] | 3.0 × 10^6 3.2 × 10^6 PFU/mL | 50 | 46.7 | 100 | – | –
6 | N#Cc1c(NC(=O)c2ccccc2)nn2c3c(cnc12)CCC3 [8a, N-(3-Cyano-7,8-dihydro-6H-cyclopenta[e]pyrazolo[1,5-a]pyrimidin-2-yl)benzamide] | 4.0 × 10^6 2.5 × 10^6 PFU/mL | 33.3 | 58.3 | 170 | – | –
7 | N#Cc1c(NC(=O)c2ccccc2)nn2c3c(cnc12)CCCC3 [8b, N-(3-Cyano-6,7,8,9-tetrahydrocyclohexa[e]pyrazolo[1,5-a]pyrimidin-2-yl)benzamide] | – | – | – | 210 | – | –
8 | COc1ccc(-c2c(C#N)c(N)nc3c(C#N)c(NC(=O)c4ccccc4)nn23)cc1 [10b, N-(5-Amino-3,6-dicyano-7-(4-methoxyphenyl)pyrazolo[1,5-a]pyrimidin-2-yl)benzamide] | 1.0 × 10^6 b PFU/mL | – | – | 140 | higher therapeutic indices | –
9 | N#Cc1c(N)nc2c(C#N)c(NC(=O)c3ccccc3)nn2c1-c1ccc(Cl)cc1 [10c, N-(5-Amino-7-(4-chlorophenyl)-3,6-dicyanopyrazolo[1,5-a]pyrimidin-2-yl)benzamide] | 4.0 × 10^6 2.0 × 10^6 PFU/mL | 33.3 | 66.7 | 120 | – | –
10 | Cc1cc(C)n2nc(NC(=O)c3ccccc3)c(C#N)c2n1 [12a, N-(3-Cyano-5,7-dimethylpyrazolo[1,5-a]pyrimidin-2-yl)benzamide] | 4.6 × 10^6 2.0 × 10^6 PFU/mL | 23.3 | 66.7 | 210 | – | –
11 | Cc1cc(O)n2nc(NC(=O)c3ccccc3)c(C#N)c2n1 [12b, N-(3-Cyano-7-hydroxy-5-methylpyrazolo[1,5-a]pyrimidin-2-yl)benzamide] | 5.0 × 10^6 4.0 × 10^6 PFU/mL | 16.7 | 33.3 | 190 | – | –
12 | CC(=O)OC[C@H]1O[C@@H](SC(NC(=O)c2ccccc2)=C(C#N)C#N)[C@H](OC(C)=O)[C@H](OC(C)=O)[C@H]1OC(C)=O [21a, (2R,3S,4R,5R,6S)-2-(Acetoxymethyl)-6-((1-benzamido-2,2-dicyanovinyl)thio)tetrahydro-2H-pyran-3,4,5-triyl triacetate] | 2.2 × 10^6 2.0 × 10^6 PFU/mL | 63.3 | 66.7 | 90 | – | –
13 | CCOC(=O)/C(C#N)=C(\NC(=O)c1ccccc1)S[C@@H]1O[C@H](COC(C)=O)[C@H](OC(C)=O)[C@@H](OC(C)=O)[C@H]1OC(C)=O [21b, (2R,3S,4R,5R,6S)-2-(Acetoxymethyl)-6-(((E)-1-benzamido-2-cyano-3-ethoxy-3-oxoprop-1-en-1-yl)thio)tetrahydro-2H-pyran-3,4,5-triyl triacetate] | 3.5 × 10^6 2.0 × 10^6 PFU/mL | 41.7 | 66.7 | 210 | – | –
14 | N#Cc1c(NC(=O)c2ccccc2)n[nH]c1N [compound 4, N-(5-Amino-4-cyano-1H-pyrazol-3-yl)benzamide] | 2.0 × 10^6 1.4 × 10^6 PFU/mL | 66.7 | 76.7 | 30 | higher therapeutic indices | –
15 | CCOC(=O)/C(C#N)=C(\NC(=O)c1ccccc1)SC [compound 14, (E)-Ethyl 3-benzamido-2-cyano-3-(methylthio)acrylate] | 5.0 × 10^6 5.0 × 10^6 PFU/mL | 16.7 | 16.7 | 130 | – | –
16 | CCOc1n[nH]c(-c2ccccc2)n1 [compound 19, 3-Ethoxy-5-phenyl-1H-1,2,4-triazole] | 2.2 × 10^6 2.0 × 10^6 PFU/mL | 63.3 | 66.7 | 230 | – | –
17 | CC(=O)N[C@H]1[C@H]([C@H](O)[C@H](O)CO)OC(C(=O)O)=C[C@@H]1N=C(N)N [zanamivir, reference compound] | 5.0 × 10^4 1.1 × 10^4 PFU/mL | 99.2 | 99.8 | – | – | –

Source: publication PMC7542596 (ACS Omega, 2020)
